{"source": "patent US20240083861A1", "about": "“HSD17B13 INHIBITORS AND USES THEREOF” (FL2022-001, Inc., priority 2020, published 2024)", "note": "pIC50: −log10 of the molar value."}
{"molecular_target": "T1, Recombinant human HSD17B13 enzyme (Homo sapiens, UniProt Q7Z5P4)", "T1 sequence (Q7Z5P4 20-300)": "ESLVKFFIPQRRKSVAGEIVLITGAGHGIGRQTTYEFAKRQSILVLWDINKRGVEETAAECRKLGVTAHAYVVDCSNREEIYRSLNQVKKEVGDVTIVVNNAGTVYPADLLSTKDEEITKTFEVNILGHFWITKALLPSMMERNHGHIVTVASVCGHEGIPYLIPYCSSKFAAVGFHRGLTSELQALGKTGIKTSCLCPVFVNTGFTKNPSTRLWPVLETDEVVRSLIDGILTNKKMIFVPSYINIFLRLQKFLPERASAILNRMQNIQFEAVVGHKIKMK", "experiment": "HSD17b13 NAD(P)H-Glo biochemical assay", "conditions": "50 uM estradiol, 1 mM NAD+, NAD(P)H-Glo luminescence; read-out: HSD17β13 IC50", "in_short": "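Recombinant human HSD17B13 in 20 mM Tris pH7.4 with 0.002% Tween-20 and 0.02% BSA was preincubated with inhibitor for 20 minutes at RT. The reaction ran 3 hours at 37° C with 50 uM estradiol and 1 mM NAD+ (final). NADH formed was detected by NAD(P)H-Glo luminescence after 1 hour at RT.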"}
{"smiles": "CCOC1(C)CCN(c2ncc3c(-c4cc(C(F)(F)F)c(F)c(O)c4F)nn(C)c3n2)CC1", "note": "[Compound 18.68, 3-(6-(4-Ethoxy-4-methylpiperidin-1-y1)-1-methyl-1H-pyrazolo[3,4-d]pyrimidin-3-y1)-2,6-difluoro-5-(trifluoromethyl)phenol]", "pIC50": "> 7.00"}
{"smiles": "CC(C)OC1CCN(c2ncc3c(-c4cc(C(F)(F)F)c(F)c(O)c4F)nn(C)c3n2)CC1", "note": "[Compound 18.69, 2,6-Difluoro-3-(6-(4-isopropoxypiperidin-1-yl)-1-methyl-1H-pyrazolo[3,4-d]pyrimidin-3-y1)-5-(trifluoromethyl)phenol]", "pIC50": "> 7.00"}
{"smiles": "CCOC1CCN(c2ncc3c(-c4cc(C(F)(F)F)c(F)c(O)c4F)nn(C)c3n2)CC1", "note": "[Compound 18.70, 3-(6-(4-Ethoxypiperidin-1-y1)-1-methyl-1H-pyrazolo[3,4-d]pyrimidin-3-y1)-2,6-difluoro-5-(trifluoromethyl)phenol]", "pIC50": "> 7.00"}
{"smiles": "Cn1nc(-c2cc(C(F)(F)F)c(F)c(O)c2F)c2cnc(N3CCCC(c4ccncn4)C3)nc21", "note": "(stereo not shown) [Compound 18.71, 2,6-Difluoro-3-(1-methyl-6-(3-(pyrimidin-4-y1)piperidin-1-yl)-1H-pyrazolo[3,4-d]pyrimidin-3-y1)-5-(trifluoromethyl)phenol]", "pIC50": "> 7.00"}
{"smiles": "CN1CCN(c2ncc3c(-c4cc(C(F)(F)F)c(F)c(O)c4F)nn(C)c3n2)CC1", "note": "[Compound 18.72, 2,6-Difluoro-3-(1-methyl-6-(4-methylpiperazin-1-yl)-1H-pyrazolo[3,4-d]pyrimidin-3-y1)-5-(trifluoromethyl)phenol]", "pIC50": "6.00 to 7.00"}
{"smiles": "CC(C)N1CCN(c2ncc3c(-c4cc(C(F)(F)F)c(F)c(O)c4F)nn(C)c3n2)CC1", "note": "[Compound 18.73, 2,6-Difluoro-3-(6-(4-isopropylpiperazin-1-yl)-1-methyl-1H-pyrazolo[3,4-d]pyrimidin-3-yl)-5-(trifluoromethyl)phenol]", "pIC50": "6.00 to 7.00"}
{"smiles": "Cn1nc(-c2cc(C(F)(F)F)c(F)c(O)c2F)c2cnc(N3CC4CC(C3)N4S(C)(=O)=O)nc21", "note": "[Compound 18.74, 2,6-Difluoro-3-(1-methyl-6-(6-(methylsulfony1)-3,6-diazabicyclo[3.1.1]heptan-3-yl)-1H-pyrazolo[3,4-d]pyrimidin-3-y1)-5-(trifluoromethyl)phenol]", "pIC50": "6.00 to 7.00"}
{"smiles": "Cn1nc(-c2cc(C(F)(F)F)c(F)c(O)c2F)c2cnc(N3CCNCC3)nc21", "note": "[Compound 18.75, 2,6-Difluoro-3-(1-methyl-6-(piperazin-1-y1)-1H-pyrazolo[3,4-d]pyrimidin-3-y1)-5-(trifluoromethyl)phenol]", "pIC50": "6.00 to 7.00"}
{"smiles": "Cn1nc(-c2cc(C(F)(F)F)c(F)c(O)c2F)c2cnc(N3CCCC(c4ncccn4)C3)nc21", "note": "(stereo not shown) [Compound 18.76, 2,6-Difluoro-3-(1-methyl-6-(3-(pyrimidin-2-y1)piperidin-1-yl)-1H-pyrazolo[3,4-d]pyrimidin-3-y1)-5-(trifluoromethyl)phenol]", "pIC50": "> 7.00"}
{"smiles": "COC1CCN(c2ncc3c(-c4cc(C(F)(F)F)c(F)c(O)c4F)nn(C)c3n2)CC1", "note": "[Compound 18.77, 2,6-Difluoro-3-(6-(4-methoxypiperidin-1-y1)-1-methyl-1H-pyrazolo[3,4-d]pyrimidin-3-yl)-5-(trifluoromethyl)phenol]", "pIC50": "> 7.00"}
{"smiles": "Cn1nc(-c2cc(C(F)(F)F)c(F)c(O)c2F)c2cnc(N3CCOC(c4nnc[nH]4)C3)nc21", "note": "(stereo not shown) [Compound 18.78, 3-(6-(2-(4H-1,2,4-Triazol-3-yl)morpholino)-1-methyl-1H-pyrazolo[3,4-d]pyrimidin-3-y1)-2,6-difluoro-5-(trifluoromethyl)phenol]", "pIC50": "6.00 to 7.00"}
{"smiles": "Cn1nc(-c2cc(C(F)(F)F)c(F)c(O)c2F)c2cnc(N3CCOC(c4ncc[nH]4)C3)nc21", "note": "(stereo not shown) [Compound 18.79, 3-(6-(2-(1H-Imidazol-2-yl)morpholino)-1-methyl-1H-pyrazolo[3,4-d]pyrimidin-3-y1)-2,6-difluoro-5-(trifluoromethyl)phenol]", "pIC50": "6.00 to 7.00"}
{"smiles": "Cn1nc(-c2cc(C(F)(F)F)c(F)c(O)c2F)c2cnc(N3CCOC(c4nccs4)C3)nc21", "note": "(stereo not shown) [Compound 18.80, 2,6-Difluoro-3-(1-methyl-6-(2-(thiazol-2-yl)morpholino)-1H-pyrazolo[3,4-d]pyrimidin-3-y1)-5-(trifluoromethyl)phenol]", "pIC50": "> 7.00"}
{"smiles": "Cn1nc(-c2cc(C(F)(F)F)c(F)c(O)c2F)c2cnc(N3CCOC(c4ncon4)C3)nc21", "note": "(stereo not shown) [Compound 18.81, 3-(6-(2-(1,2,4-Oxadiazol-3-yl)morpholino)-1-methyl-1H-pyrazolo[3,4-d]pyrimidin-3-y1)-2,6-difluoro-5-(trifluoromethyl)phenol]", "pIC50": "> 7.00"}
{"smiles": "Cn1nc(-c2cc(C(F)(F)F)c(F)c(O)c2F)c2cnc(N3CCOC(c4cc[nH]n4)C3)nc21", "note": "(stereo not shown) [Compound 18.82, 3-(6-(2-(1H-Pyrazol-3-yl)morpholino)-1-methyl-1H-pyrazolo[3,4-d]pyrimidin-3-y1)-2,6-difluoro-5-(trifluoromethyl)phenol]", "pIC50": "> 7.00"}
{"smiles": "Cn1nc(-c2cc(C(F)(F)F)c(F)c(O)c2F)c2cnc(N3CCN(S(C)(=O)=O)C4(CCCC4)C3)nc21", "note": "[Compound 18.83, 2,6-Difluoro-3-(1-methyl-6-(6-(methylsulfonyl)-6,9-diazaspiro[4.5]decan-9-yl)-1H-pyrazolo[3,4-d]pyrimidin-3-y1)-5-(trifluoromethyl)phenol]", "pIC50": "> 7.00"}
{"smiles": "Cn1nc(-c2cc(C(F)(F)F)c(F)c(O)c2F)c2cnc(N3CCN(S(C)(=O)=O)C4(CCCCC4)C3)nc21", "note": "[Compound 18.84, 2,6-Difluoro-3-(1-methyl-6-(1-(methylsulfony1)-1,4-diazaspiro[5.5]undecan-4-yl)-1H-pyrazolo[3,4-d]pyrimidin-3-y1)-5-(trifluoromethyl)phenol]", "pIC50": "> 7.00"}
{"smiles": "Cn1nc(-c2cc(C(F)(F)F)c(F)c(O)c2F)c2cnc(N3CCN(S(C)(=O)=O)C4(CCOCC4)C3)nc21", "note": "[Compound 18.85, 2,6-Difluoro-3-(1-methyl-6-(1-(methylsulfony1)-9-oxa-1,4-diazaspiro[5.5]undecan-4-y1)-1H-pyrazolo[3,4-d]pyrimidin-3-y1)-5-(trifluoromethyl)phenol]", "pIC50": "> 7.00"}
{"smiles": "Cn1nc(-c2cc(C(F)(F)F)c(F)c(O)c2F)c2cnc(N3CCO[C@@H](c4ccccc4)C3)nc21", "note": "[Compound 18.86, (S)-2,6-Difluoro-3-(1-methyl-6-(2-phenylmorpholino)-1H-pyrazolo[3,4-d]pyrimidin-3-y1)-5-(trifluoromethyl)phenol]", "pIC50": "> 7.00"}
{"smiles": "Cn1nc(-c2cc(C(F)(F)F)c(F)c(O)c2F)c2cnc(N3CCO[C@H](c4ccccc4)C3)nc21", "note": "[Compound 18.87, (R)-2,6-Difluoro-3-(1-methyl-6-(2-phenylmorpholino)-1H-pyrazolo[3,4-d]pyrimidin-3-y1)-5-(trifluoromethyl)phenol]", "pIC50": "> 7.00"}
{"smiles": "Cn1nc(-c2cc(C(F)(F)F)c(F)c(O)c2F)c2cnc(N3CCC(O)(c4cccnc4)CC3)nc21", "note": "[Compound 18.88, 1-(3-(2,4-Difluoro-3-hydroxy-5-(trifluoromethyl)phenyl)-1-methyl-1H-pyrazolo[3,4-d]pyrimidin-6-yl)-4-(pyridin-3-yl)piperidin-4-ol]", "pIC50": "> 7.00"}
{"smiles": "CN1CC2(CCN(c3ncc4c(-c5cc(C(F)(F)F)c(F)c(O)c5F)nn(C)c4n3)CC2)OC1=O", "note": "[Compound 18.89, 8-(3-(2,4-Difluoro-3-hydroxy-5-(trifluoromethyl)phenyl)-1-methyl-1H-pyrazolo[3,4-d]pyrimidin-6-yl)-3-methyl-1-oxa-3,8-diazaspiro[4.5]decan-2-one]", "pIC50": "> 7.00"}
{"smiles": "Cn1nc(-c2cc(C(F)(F)F)c(F)c(O)c2F)c2cnc(N3CCCC(c4cncnc4)C3)nc21", "note": "(stereo not shown) [Compound 18.90, 2,6-Difluoro-3-(1-methyl-6-(3-(pyrimidin-5-y1)piperidin-1-yl)-1H-pyrazolo[3,4-d]pyrimidin-3-y1)-5-(trifluoromethyl)phenol]", "pIC50": "> 7.00"}
{"smiles": "Cn1nc(-c2cc(C(F)(F)F)c(F)c(O)c2F)c2cnc(N3CCC(O)(CO)CC3)nc21", "note": "[Compound 18.91, 1-(3-(2,4-Difluoro-3-hydroxy-5-(trifluoromethyl)phenyl)-1-methyl-1H-pyrazolo[3,4-d]pyrimidin-6-yl)-4-(hydroxymethyl)piperidin-4-ol]", "pIC50": "> 7.00"}
{"smiles": "Cn1nc(-c2cc(C(F)(F)F)c(F)c(O)c2F)c2cnc(N3CCC4(CCO4)CC3)nc21", "note": "[Compound 18.92, 2,6-Difluoro-3-(1-methyl-6-(1-oxa-7-azaspiro[3.5]nonan-7-y1)-1H-pyrazolo[3,4-d]pyrimidin-3-y1)-5-(trifluoromethyl)phenol]", "pIC50": "> 7.00"}
{"smiles": "Cn1nc(-c2cc(C(F)(F)F)c(F)c(O)c2F)c2cnc(N3CCC(O)(C4CC4)CC3)nc21", "note": "[Compound 18.93, 4-Cyclopropyl-1-(3-(2,4-difluoro-3-hydroxy-5-(trifluoromethyl)phenyl)-1-methyl-1H-pyrazolo[3,4-d]pyrimidin-6-y1)piperidin-4-ol]", "pIC50": "> 7.00"}
{"smiles": "CN1CCN(c2ncc3c(-c4cc(C(F)(F)F)c(F)c(O)c4F)nn(C)c3n2)CC1c1ccccc1", "note": "(stereo not shown) [Compound 18.94, 2,6-Difluoro-3-(1-methyl-6-(4-methyl-3-phenylpiperazin-1-y1)-1H-pyrazolo[3,4-d]pyrimidin-3-yl)-5-(trifluoromethyl)phenol]", "pIC50": "> 7.00"}
{"smiles": "Cn1nc(-c2cc(C(F)(F)F)c(F)c(O)c2F)c2cnc(N3CCOC4(CCOCC4)C3)nc21", "note": "[Compound 18.95, 2,6-Difluoro-3-(1-methyl-6-(1,9-dioxa-4-azaspiro[5.5]undecan-4-y1)-1H-pyrazolo[3,4-d]pyrimidin-3-y1)-5-(trifluoromethyl)phenol]", "pIC50": "> 7.00"}
